# Measured values as given in publication PMC9774438, “Effects of Synthetic Short Cationic Antimicrobial Peptides on the Catalytic Activity of Myeloperoxidase, Reducing Its Oxidative Capacity” (Antioxidants, 2022).
# “Also recorded” adds a separate entry of the source.
# Tests used:
# myeloperoxidase (MPO) [1] = target: T1, myeloperoxidase (MPO) (Homo sapiens, UniProt P05164); assay: MPO peroxidase activity (Amplex Red assay); format: biochemical; conditions: 0.8–50 μM peptide, 8 nM MPO heme, 50 μM Amplex Red, 25 μM H2O2, 50 mM K-phosphate pH 7.4
# T1 construct: Native myeloperoxidase (MPO) was obtained from human leukocyte extract by successive chromatography on heparin-Sepharose and phenyl-agarose; from tissue; host or cells: human leukocyte extract
# T1 sequence (P05164 279-745 limits assumed): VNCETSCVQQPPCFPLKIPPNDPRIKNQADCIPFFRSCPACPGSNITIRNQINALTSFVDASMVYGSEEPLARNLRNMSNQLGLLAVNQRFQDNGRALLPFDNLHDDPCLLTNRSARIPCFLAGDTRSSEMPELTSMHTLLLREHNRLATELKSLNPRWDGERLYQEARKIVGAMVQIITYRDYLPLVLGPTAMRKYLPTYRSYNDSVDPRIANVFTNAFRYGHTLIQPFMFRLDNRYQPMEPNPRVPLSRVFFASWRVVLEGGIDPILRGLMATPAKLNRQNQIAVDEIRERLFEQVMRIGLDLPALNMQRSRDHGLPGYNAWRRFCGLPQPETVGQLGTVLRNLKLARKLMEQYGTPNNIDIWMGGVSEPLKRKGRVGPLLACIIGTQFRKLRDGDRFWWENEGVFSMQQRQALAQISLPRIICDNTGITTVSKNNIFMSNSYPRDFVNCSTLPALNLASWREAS
# T1 sequence (P05164 165-273 limits assumed): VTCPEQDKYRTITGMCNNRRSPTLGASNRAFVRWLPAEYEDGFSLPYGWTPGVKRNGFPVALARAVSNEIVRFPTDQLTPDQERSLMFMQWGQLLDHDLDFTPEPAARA
# Protocol: MPO peroxidase activity was evaluated fluorometrically using Amplex Red^TM reagent which was oxidized by MPO to the fluorescent resorufin (λex = 530 nm, λem = 590 nm). The assay was performed in 96-plate format. The final reaction mixture in 50 mM K-phosphate buffer (pH 7.4) was as follows: MPO, 8 nM heme; peptide, […]; H2O2, 25 μM; Amplex Red reagent, 50 μM. MPO was preincubated with peptides for 5 min in a volume of 100 μl. Then, Amplex Red was added, and the enzymatic reaction was initiated by adding H2O2 (a final probe volume of 200 μL per well). The fluorescence measurement was made with a CLARIOstar multimodal plate reader (BMG Labtech, Ortenberg, Germany) at 5 min after the beginning of the reaction. To determine the type of CAMP-induced inhibition, KM and Vmax were obtained by varying substrates of MPO: Amplex Red in a final concentration from 1 to 62.5 μM, or H2O2 in a final concentration from 0.625 to 20 μM.
# The Hannes-Wolf plots were made as ([Substrate]/V = f([Substrate]). KM was equal in magnitude to the intercept made on the abscissa axis by the approximating straight line; Vmax was calculated as a reciprocal value of the straight-line slope. The inhibition constant (Ki) for noncompetitive inhibition was calculated as follows: Ki = [I]/((Vmax − Vmax’)/Vmax’); Ki for competitive inhibition was calculated as follows: Ki = [I]/((KM’ − KM)/KM); Ki for mixed inhibition was calculated as follows: Ki = [I]/(((KM’ − KM)/KM)^2 + ((Vmax − Vmax’)/Vmax’))^2)^0.5; and Ki for uncompetitive inhibition was calculated as follows: Ki = [I]/(((KM − KM’)/KM’)^2 + ((Vmax – Vmax’)/Vmax’))^2)^0.5, where [I]—concentration of inhibitor (CAMP), KM—Michaelis constant without inhibitor, Vmax—maximal rate without inhibitor, KM’—Michaelis constant in the presence of inhibitor, Vmax’—maximal rate in the presence of inhibitor.
# From the experiments with varying concentrations of H2O2 (0.01–200 μM) and Amplex Red (6.25–100 μM), the optimal concentrations of 25 μM H2O2 and 50 μM Amplex Red were chosen for further work. The 0.8–50 μM concentration range (corresponding to 100–6250 peptide molecules per heme) was used to determine the concentration dependence of the effect of CAMPs on peroxidase activity of MPO.
# [2] = 10 mM Na-phosphate pH 7.4; limits peptide/heme ratio to 45:1
# myeloperoxidase (MPO) [3] = target: T1, myeloperoxidase (MPO); assay: Electrospray mass spectrometry of dityrosine cross-linked peptide dimer; format: biochemical; conditions: 40 μM peptide, 0.4 μM MPO heme, 50 μM H2O2, 10 mM Na-phosphate; ESI-MS positive mode
# Protocol: Mass spectra were acquired using an Orbitrap Q Exactive HF-X mass spectrometer equipped with HESI source in the positive ion mode (Thermo Fisher Scientific, Waltham, MA, USA). Direct infusion syringe pump sampling was carried out with a […] Hamilton syringe at a flow rate of […]. The spray voltage was set at +3.5 kV, the sheath and auxiliary gas flow rate at 5 and 1, respectively; the S-lens RF level at 65; the capillary temperature at 250 °C. The resolution was set at 240,000, the AGC target at 1E6, and the maximum injection time at 50 ms. A summary spectrum was collected over 4 min and used for calculating S/N and measuring peak intensities. Before analysis, desalting of samples was carried out using C-18 ZIP-TIP (Millipore, Billerica, MA, USA), according to the manufacturer’s instructions. The eluate was mixed with 0.1% formic acid in DI water (18 MOhm) to a volume of 100 μL. The solutions prepared were used for direct infusion.
# Additional proof for dityrosine formation upon incubation of Hm-AMP2 with H2O2-activated MPO was obtained by electrospray mass spectrometry which allowed the detection of a peptide product of the molecular weight of the dityrosine cross-linked peptide dimer. Dimerization of peptides via initial formation of a tyrosyl radical results in a 2 Da decrease in the double mass of the peptide to [2M − 2H]. […]
sequence,measurement,setting,value
"EKRWRRLIFNYF [Hm-AMP2, synthetic cationic antimicrobial peptide …]",effect on MPO peroxidase activity,myeloperoxidase (MPO) [1],no inhibition; also recorded: No effect
same,solubility in phosphate buffer,[2],poor solubility
same,increase of [2M − 2H + 3H]3+ dimer ion signal (m/z 1152.4) vs control,myeloperoxidase (MPO) [3],20 fold
